Laboratory results reported in US20130212744A1, “METHOD OF REDUCING INSECT-VECTORED VIRAL INFECTIONS” (priority 2010, published 2013).

How the values were obtained:
Assay type in all cases: in vivo
Settings in all cases: 150 g ai/hl
[1] = test system: whitefly Bemisia tabaci adults; experiment: Foliar use field trial on tomato, efficacy on whitefly adults
Experimental: (§1) Two studies were carried out in Elhasanya, Egypt in 2009 on tomato plants of the variety Fayrouz with the main goal to measure efficacy on the whitefly Bemisia tabaci. The plot size was 4.8 m^2 and 6 replicates were used in the trial. Products were applied 3 times on young tomato plants at BBCH stages 14, 17 and 51 at spray intervals between 12 and 19 days. The spray volume was at the first application 350 l/ha and later 500 l/ha. The evaluation of this study was done counting the adult whiteflies (Bemisia tabaci) as well as the nymphs and the eggs in each plot. In addition to the direct whitefly effect, visual symptoms of the virus, mainly TYLCV (tomato yellow leaf curl virus) were evaluated also.
(§2) ASM=Acibenzolar-S-methyl. WG 50=Actigard® 50WG, a water-dispersible granule with the active ingredient ASM CYNT=Cyantraniliprole. WG 40=Cyazypyr®, a water dispersable granule with the active ingredient CYNT. Results on whitefly adults. Trial 1

[2] = test system: whitefly Bemisia tabaci nymphs; experiment: Foliar use field trial on tomato, efficacy on whitefly nymphs
Experimental: as §1, §2

[3] = test system: TYLCV (tomato yellow leaf curl virus); experiment: Foliar use field trial on tomato, infected leaf area by TYLC virus
Experimental: as §1, §2
Evaluation of percentage of infected leaf area by TYLC virus (average of 45 plants evaluated per treatment) Trial 1

SMILES: Cc1cc(C)c(C2=C(OC(=O)CC(C)(C)C)C3(CCCC3)OC2=O)c(C)c1 [Spiromesifen]
- % Efficacy on Adults ([1]; 5DAA1, Trial 1): 61%
- % Efficacy on Adults ([1]; 5DAA1, Trial 2): 61%
- % Efficacy on Adults ([1]; 5DAA2, Trial 1): 71%
- % Efficacy on Adults ([1]; 5DAA2, Trial 2): 71%
- % Efficacy on Adults ([1]; 5DAA3, Trial 1): 81%
- % Efficacy on Adults ([1]; 5DAA3, Trial 2): 81%
- % Efficacy on Adults ([1]; 10DAA1, Trial 1): 43%
- % Efficacy on Adults ([1]; 10DAA1, Trial 2): 43%
- % Efficacy on Adults ([1]; 10DAA2, Trial 1): 69%
- % Efficacy on Adults ([1]; 10DAA2, Trial 2): 69%
- % Efficacy on Adults ([1]; 10DAA3, Trial 1): 76%
- % Efficacy on Adults ([1]; 10DAA3, Trial 2): 76%
- % Efficacy on Adults ([1]; 15DAA3, Trial 1): 67%
- % Efficacy on Adults ([1]; 15DAA3, Trial 2): 67%
- % Efficacy on Adults ([1]; 20DAA3, Trial 1): 54%
- % Efficacy on Adults ([1]; 20DAA3, Trial 2): 54%
- % Efficacy on Adults Avg % C ([1]; Avg, Trial 1): 65%
- % Efficacy on Nymphs ([2]; 5DAA2, Trial 1): 86%
- % Efficacy on Nymphs ([2]; 5DAA2, Trial 2): 86%
- % Efficacy on Nymphs ([2]; 5DAA3, Trial 1): 88%
- % Efficacy on Nymphs ([2]; 5DAA3, Trial 2): 88%
- % Efficacy on Nymphs ([2]; 10DAA2, Trial 1): 85%
- % Efficacy on Nymphs ([2]; 10DAA2, Trial 2): 85%
- % Efficacy on Nymphs ([2]; 10DAA3, Trial 1): 84%
- % Efficacy on Nymphs ([2]; 10DAA3, Trial 2): 84%
- % Efficacy on Nymphs ([2]; 15DAA3, Trial 1): 81%
- % Efficacy on Nymphs ([2]; 15DAA3, Trial 2): 81%
- % Efficacy on Nymphs ([2]; 20DAA3, Trial 1): 76%
- % Efficacy on Nymphs ([2]; 20DAA3, Trial 2): 76%
- % Efficacy on Nymphs Avg % C ([2]; Avg, Trial 1): 83%
- % Infected Surface area with virus / plant ([3]; 5DAA2, Trial 1): 1.1%
- % Infected Surface area with virus / plant ([3]; 5DAA2, Trial 2): 1.1%
- % Infected Surface area with virus / plant ([3]; 5DAA3, Trial 1): 0.8%
- % Infected Surface area with virus / plant ([3]; 5DAA3, Trial 2): 0.8%
- % Infected Surface area with virus / plant ([3]; 10DAA3, Trial 1): 7.1%
- % Infected Surface area with virus / plant ([3]; 10DAA3, Trial 2): 7.1%
- % Infected Surface area with virus / plant ([3]; 15DAA3, Trial 1): 8.8%
- % Infected Surface area with virus / plant ([3]; 15DAA3, Trial 2): 8.8%
- % Infected Surface area with virus / plant ([3]; 20DAA3, Trial 1): 11.1%
- % Infected Surface area with virus / plant ([3]; 20DAA3, Trial 2): 11.1%
- % Infected Surface area with virus / plant ([3]; 24DAA3, Trial 1): 11.5%
- % Infected Surface area with virus / plant ([3]; 24DAA3, Trial 2): 11.5%
